# Measurements: paper PMC4809600, “The Influence of Chronic Wound Extracts on Inflammatory Cytokine and Histatin Stability” (PLoS ONE, 2016)
# Tested on: dermal fibroblasts
# Assay: Fibroblast wound healing scratch assay (migration)
# Assay type: cell-based, human
# Details: serum-free medium, histatins 5 μM, rhIL-6 125 ng/ml, rhCXCL8 250 ng/ml, (E0-E96)/(U0-U96), unexposed = 1; for Migration of dermal fibroblasts in scratch assay, 8 h exposure: 8 h exposure then 88 h without, read at 96 h; for Migration of dermal fibroblasts in scratch assay, 96 h exposure: continuous 96 h exposure
# Description: Dermal fibroblasts were isolated from healthy human abdominal skin from patients undergoing corrective abdominal plastic surgery. After removal of all adipose tissue, the skin was washed in PBS and incubated overnight on dispase II (Roche, Mannheim, Germany) at 4°C. The next day, epidermis was removed and discarded and the dermis was incubated in collagenase type II (Gibco, Life Technologies, Grand Island, USA)/dispase II in Hanks balanced salt solution (HBSS) (Gibco) at 37°C for 2–3 h. Fibroblast medium consisting of DMEM (Lonza, Verviers, Belgium) containing 1% ultroserG (UG) (Biosepra, Cergy-Saint-Christopher, France) and 1% penicillin-streptomycin (P/S) (Gibco) was added and the solution was passed through an 100 μm and 40 μm cell strainer (Becton Dickinson Falcon, Erembodegem, Belgium). A single cell suspension was seeded at ± 3.5 x 10^4 cells cm^2 and further cultured in fibroblast medium. Medium was changed twice a week and cultures were passaged when 90% confluent using 0.5mM EDTA/0.05% trypsin (Gibco). The cells were maintained at 37°C in a humidified atmosphere containing 5% CO2 and used for experiments at passage 3.
# A wound healing scratch assay was performed to determine the effect of histatins, rhIL-6 and rhCXCL8 on fibroblast migration. Confluent monolayers of fibroblasts in a 48-well plate (Costar, Corning Incorporated, New York, USA) were incubated with serum-free medium (DMEM containing 1% P/S and 0.1% bovine serum albumin (Sigma-Aldrich)) for 96 h to ensure minimum spontaneous migration. Next, a scratch was drawn with a disposable plastic pipette tip. Cultures were exposed to Hst1, cHst1, Hst2 and mad-Hst1 (all used at a concentration of 5μM), rhIL-6 (125 ng/ml), rhCXCL8 (250 ng/ml) and vehicle (H2O) in serum free medium. Two experimental set-ups were studied: i) cells were exposed only during the first 8 h to histatins and cytokines and then transferred to vehicle supplemented medium for an additional 88 h; or ii) cells were exposed to histatins and cytokines during the entire 96 h study period. Phase contrast micrographs were taken directly after drawing the scratch and after four days (96 h) of exposure. Data were analyzed using an image processing algorithm that has been described in detail in our previous work. The area of the scratch covered by migrating fibroblasts was determined using the following equation: (E0-E96)/(U0-U96), in which: E = exposure to a condition (IL-6, CXCL8 and histatins); U = unexposed (serum-free medium); E0 and U0 = area of the scratch at T = 0 h; E96 and U96 = area of the scratch (not covered with cells) after 96 h. In this way, in each exposed group (IL-6, CXCL8, histatins) the resurfaced area at 96 h is compared to its own 0 h time point and then set relative to the unexposed group (serum-free medium).
# [1] = experiment 1, average of four replicates
# [2] = experiment 2, average of four replicates
# [3] = experiment 3, average of four replicates
substance,measurement,setting,value
cyclo(DNLPETGGDSHEKRHHGYRRKFHEKHHSHREFPFYGDYGSNYLY) [cHst1],"Migration of dermal fibroblasts in scratch assay, 8 h exposure",[1],1.6
same,"Migration of dermal fibroblasts in scratch assay, 8 h exposure",[2],1.24
same,"Migration of dermal fibroblasts in scratch assay, 8 h exposure",[3],1.53
same,"Migration of dermal fibroblasts in scratch assay, 96 h exposure",[1],1.46
same,"Migration of dermal fibroblasts in scratch assay, 96 h exposure",[2],1.26
same,"Migration of dermal fibroblasts in scratch assay, 96 h exposure",[3],1.33
